Reference: ChEMBL document CHEMBL5653615 (J Biol Chem, 2013)
Calls of active or inactive are those of the source. No cut-off for these calls is given here.

How the values were obtained:
[1] = molecular target: Tyrosine-protein kinase ABL1 (Homo sapiens) (UniProt P00519); test: Inhibition of human ABL1 at 500 nM by HotSpot assay relative to control
[2] = molecular target: Calcium/calmodulin-dependent protein kinase type 1G (Homo sapiens) (UniProt Q96NX5); test: Inhibition of human CAMK1g at 500 nM by HotSpot assay relative to control
[3] = molecular target: CDK9/Cyclin K (Homo sapiens) (UniProt P50750+O75909); test: Inhibition of human CDK9/cyclin K at 500 nM by HotSpot assay relative to control; format: protein-complex assay
[4] = molecular target: Serine/threonine-protein kinase Chk2 (Homo sapiens) (UniProt O96017); test: Inhibition of human CHK2 at 500 nM by HotSpot assay relative to control
Chain of Serine/threonine-protein kinase Chk2 (Homo sapiens) (O96017 whole entry): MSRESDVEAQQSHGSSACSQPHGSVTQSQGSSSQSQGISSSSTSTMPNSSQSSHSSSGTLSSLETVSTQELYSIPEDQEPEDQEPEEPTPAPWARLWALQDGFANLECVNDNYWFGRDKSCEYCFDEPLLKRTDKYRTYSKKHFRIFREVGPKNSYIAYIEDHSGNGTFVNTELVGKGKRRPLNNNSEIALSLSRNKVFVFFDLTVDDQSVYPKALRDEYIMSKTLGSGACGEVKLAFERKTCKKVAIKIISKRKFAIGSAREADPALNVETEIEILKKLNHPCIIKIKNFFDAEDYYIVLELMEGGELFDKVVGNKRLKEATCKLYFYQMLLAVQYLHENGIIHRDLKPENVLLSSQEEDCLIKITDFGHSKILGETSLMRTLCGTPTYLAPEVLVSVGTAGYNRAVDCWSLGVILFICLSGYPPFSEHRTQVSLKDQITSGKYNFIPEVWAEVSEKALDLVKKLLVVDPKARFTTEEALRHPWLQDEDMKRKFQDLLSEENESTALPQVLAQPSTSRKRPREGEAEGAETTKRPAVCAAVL

[5] = molecular target: Casein kinase II subunit alpha' (Homo sapiens) (UniProt P19784); test: Inhibition of human CK2a2 at 500 nM by HotSpot assay relative to control
[6] = molecular target: Dual specificity protein kinase CLK2 (Homo sapiens) (UniProt P49760); test: Inhibition of human CLK2 at 500 nM by HotSpot assay relative to control
[7] = molecular target: Focal adhesion kinase 1 (Homo sapiens) (UniProt Q05397); test: Inhibition of human FAK at 500 nM by HotSpot assay relative to control
[8] = molecular target: Vascular endothelial growth factor receptor 3 (Homo sapiens) (UniProt P35916); test: Inhibition of human FLT4 at 500 nM by HotSpot assay relative to control
Chain of Vascular endothelial growth factor receptor 3 (Homo sapiens) (P35916 whole entry): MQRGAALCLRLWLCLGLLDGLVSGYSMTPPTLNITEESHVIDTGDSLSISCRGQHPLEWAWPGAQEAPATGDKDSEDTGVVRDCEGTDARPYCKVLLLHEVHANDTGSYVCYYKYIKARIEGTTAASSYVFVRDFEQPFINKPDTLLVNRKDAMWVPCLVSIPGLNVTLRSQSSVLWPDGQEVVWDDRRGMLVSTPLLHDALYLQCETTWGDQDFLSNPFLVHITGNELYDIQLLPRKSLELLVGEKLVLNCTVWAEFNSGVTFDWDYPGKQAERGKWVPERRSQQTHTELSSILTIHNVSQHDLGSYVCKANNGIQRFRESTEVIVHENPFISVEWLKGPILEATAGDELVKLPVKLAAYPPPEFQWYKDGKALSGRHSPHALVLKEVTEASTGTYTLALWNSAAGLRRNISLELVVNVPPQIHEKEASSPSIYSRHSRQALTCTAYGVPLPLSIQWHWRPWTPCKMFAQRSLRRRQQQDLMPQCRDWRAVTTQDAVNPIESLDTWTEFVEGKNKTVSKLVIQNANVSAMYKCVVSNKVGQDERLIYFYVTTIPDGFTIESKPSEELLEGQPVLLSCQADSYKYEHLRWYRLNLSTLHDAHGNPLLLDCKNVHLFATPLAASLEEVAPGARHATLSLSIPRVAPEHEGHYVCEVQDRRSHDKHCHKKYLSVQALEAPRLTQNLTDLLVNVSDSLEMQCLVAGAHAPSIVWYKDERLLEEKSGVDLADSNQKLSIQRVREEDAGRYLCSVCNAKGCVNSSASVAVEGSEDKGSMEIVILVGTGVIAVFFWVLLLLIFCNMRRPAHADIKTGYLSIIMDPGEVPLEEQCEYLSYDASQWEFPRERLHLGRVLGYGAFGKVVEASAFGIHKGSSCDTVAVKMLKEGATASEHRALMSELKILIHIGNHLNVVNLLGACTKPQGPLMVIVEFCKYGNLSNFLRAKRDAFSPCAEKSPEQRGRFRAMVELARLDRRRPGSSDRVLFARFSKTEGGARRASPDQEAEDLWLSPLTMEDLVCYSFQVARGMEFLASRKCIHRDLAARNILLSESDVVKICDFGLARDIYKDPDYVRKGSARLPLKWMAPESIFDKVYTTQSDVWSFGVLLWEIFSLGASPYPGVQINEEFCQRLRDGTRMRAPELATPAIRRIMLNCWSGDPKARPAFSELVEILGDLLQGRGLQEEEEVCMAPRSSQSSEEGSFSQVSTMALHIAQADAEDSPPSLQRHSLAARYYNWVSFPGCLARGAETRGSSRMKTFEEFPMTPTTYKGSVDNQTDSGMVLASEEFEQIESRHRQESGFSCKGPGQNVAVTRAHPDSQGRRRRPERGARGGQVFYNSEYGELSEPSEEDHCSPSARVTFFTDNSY

[9] = molecular target: Macrophage colony-stimulating factor 1 receptor (Homo sapiens) (UniProt P07333); test: Inhibition of human FMS at 500 nM by HotSpot assay relative to control
[10] = molecular target: Mitogen-activated protein kinase kinase kinase kinase 4 (Homo sapiens) (UniProt O95819); test: Inhibition of human HGK at 500 nM by HotSpot assay relative to control
[11] = molecular target: Insulin-like growth factor 1 receptor (Homo sapiens, UniProt P08069); test: Inhibition of human IGF1R at 500 nM by HotSpot assay relative to control
[12] = molecular target: Mitogen-activated protein kinase 10 (Homo sapiens) (UniProt P53779); test: Inhibition of human JNK3 at 500 nM by HotSpot assay relative to control
[13] = molecular target: Myosin light chain kinase, smooth muscle (Homo sapiens) (UniProt Q15746); test: Inhibition of human MYLK at 500 nM by HotSpot assay relative to control
Chain of Myosin light chain kinase, smooth muscle (Homo sapiens) (Q15746 whole entry): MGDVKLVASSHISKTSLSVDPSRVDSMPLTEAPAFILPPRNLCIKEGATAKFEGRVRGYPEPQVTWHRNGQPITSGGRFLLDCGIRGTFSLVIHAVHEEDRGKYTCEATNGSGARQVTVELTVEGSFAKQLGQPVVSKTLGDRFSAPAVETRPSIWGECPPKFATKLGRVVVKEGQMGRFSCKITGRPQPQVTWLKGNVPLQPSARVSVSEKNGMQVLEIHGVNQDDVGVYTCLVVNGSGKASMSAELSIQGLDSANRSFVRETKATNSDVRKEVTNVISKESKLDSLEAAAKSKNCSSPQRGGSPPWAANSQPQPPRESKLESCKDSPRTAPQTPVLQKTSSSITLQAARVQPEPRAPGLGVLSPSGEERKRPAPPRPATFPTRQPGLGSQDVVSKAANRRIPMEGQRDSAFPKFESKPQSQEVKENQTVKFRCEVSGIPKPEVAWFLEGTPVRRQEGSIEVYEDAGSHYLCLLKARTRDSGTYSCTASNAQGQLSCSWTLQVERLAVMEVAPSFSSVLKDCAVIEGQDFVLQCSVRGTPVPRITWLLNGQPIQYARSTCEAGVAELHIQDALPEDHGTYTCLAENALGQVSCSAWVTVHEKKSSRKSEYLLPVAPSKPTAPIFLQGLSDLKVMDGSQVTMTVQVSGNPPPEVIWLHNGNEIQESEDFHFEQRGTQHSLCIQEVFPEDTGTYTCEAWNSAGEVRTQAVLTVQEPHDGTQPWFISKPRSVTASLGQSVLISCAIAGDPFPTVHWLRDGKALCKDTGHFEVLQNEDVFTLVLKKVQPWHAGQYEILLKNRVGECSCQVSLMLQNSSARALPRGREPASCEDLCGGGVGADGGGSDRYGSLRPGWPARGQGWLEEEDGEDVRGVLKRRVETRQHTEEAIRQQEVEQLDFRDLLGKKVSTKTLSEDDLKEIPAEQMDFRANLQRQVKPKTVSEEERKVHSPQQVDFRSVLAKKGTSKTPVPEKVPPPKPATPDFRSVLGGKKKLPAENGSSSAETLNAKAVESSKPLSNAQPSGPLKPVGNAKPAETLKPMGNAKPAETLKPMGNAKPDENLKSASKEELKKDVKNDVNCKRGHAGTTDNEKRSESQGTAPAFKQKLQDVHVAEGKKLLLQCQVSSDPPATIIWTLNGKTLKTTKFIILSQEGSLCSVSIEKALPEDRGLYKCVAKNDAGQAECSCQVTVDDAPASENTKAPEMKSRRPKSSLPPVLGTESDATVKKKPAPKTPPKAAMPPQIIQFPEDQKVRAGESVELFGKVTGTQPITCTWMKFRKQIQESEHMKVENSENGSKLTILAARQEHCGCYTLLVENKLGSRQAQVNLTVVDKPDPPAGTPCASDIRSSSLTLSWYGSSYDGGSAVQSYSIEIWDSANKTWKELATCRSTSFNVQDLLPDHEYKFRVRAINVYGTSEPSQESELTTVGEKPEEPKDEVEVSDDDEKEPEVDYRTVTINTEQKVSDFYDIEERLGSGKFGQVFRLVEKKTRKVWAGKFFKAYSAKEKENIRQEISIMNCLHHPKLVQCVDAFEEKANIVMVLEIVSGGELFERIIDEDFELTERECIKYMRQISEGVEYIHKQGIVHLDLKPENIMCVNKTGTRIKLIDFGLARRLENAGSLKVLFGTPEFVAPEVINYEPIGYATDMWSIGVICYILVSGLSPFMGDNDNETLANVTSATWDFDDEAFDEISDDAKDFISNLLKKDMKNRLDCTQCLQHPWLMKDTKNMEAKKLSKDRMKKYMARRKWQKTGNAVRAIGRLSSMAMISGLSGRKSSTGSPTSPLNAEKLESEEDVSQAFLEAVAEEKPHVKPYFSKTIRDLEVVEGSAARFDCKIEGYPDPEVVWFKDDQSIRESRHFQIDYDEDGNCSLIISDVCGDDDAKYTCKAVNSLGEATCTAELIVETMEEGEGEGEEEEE

[14] = molecular target: MAP kinase-interacting serine/threonine-protein kinase 2 (Homo sapiens) (UniProt Q9HBH9); test: Inhibition of human MNK2 at 500 nM by HotSpot assay relative to control
Chain of MAP kinase-interacting serine/threonine-protein kinase 2 (Homo sapiens) (Q9HBH9 whole entry, looked up): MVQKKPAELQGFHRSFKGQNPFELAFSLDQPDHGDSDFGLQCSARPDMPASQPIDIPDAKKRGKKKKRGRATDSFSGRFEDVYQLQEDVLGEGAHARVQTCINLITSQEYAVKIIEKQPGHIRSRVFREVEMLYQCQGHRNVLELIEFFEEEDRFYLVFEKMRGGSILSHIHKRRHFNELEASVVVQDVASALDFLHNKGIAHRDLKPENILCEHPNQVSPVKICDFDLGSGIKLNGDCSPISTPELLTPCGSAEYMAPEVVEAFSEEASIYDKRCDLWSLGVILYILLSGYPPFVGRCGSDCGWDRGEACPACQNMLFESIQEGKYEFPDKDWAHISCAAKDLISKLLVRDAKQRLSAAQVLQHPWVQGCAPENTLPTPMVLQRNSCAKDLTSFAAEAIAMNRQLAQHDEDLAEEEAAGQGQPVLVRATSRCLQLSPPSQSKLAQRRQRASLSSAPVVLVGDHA

[15] = molecular target: Serine/threonine-protein kinase Nek7 (Homo sapiens) (UniProt Q8TDX7); test: Inhibition of human NEK7 at 500 nM by HotSpot assay relative to control
Chain of Serine/threonine-protein kinase Nek7 (Homo sapiens) (Q8TDX7 whole entry, looked up): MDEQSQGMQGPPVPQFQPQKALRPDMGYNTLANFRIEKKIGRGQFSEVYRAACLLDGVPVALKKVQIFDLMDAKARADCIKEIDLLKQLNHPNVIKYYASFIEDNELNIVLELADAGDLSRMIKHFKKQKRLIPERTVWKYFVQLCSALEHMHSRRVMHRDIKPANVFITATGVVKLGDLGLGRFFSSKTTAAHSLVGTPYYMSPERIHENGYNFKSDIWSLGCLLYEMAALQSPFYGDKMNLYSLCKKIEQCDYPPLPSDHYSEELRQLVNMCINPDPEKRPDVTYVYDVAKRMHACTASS

[16] = molecular target: T1, Protein kinase C iota type (Homo sapiens) (UniProt P41743); test: Inhibition of human PKCiota at 500 nM by HotSpot assay relative to control
T1 sequence (whole entry): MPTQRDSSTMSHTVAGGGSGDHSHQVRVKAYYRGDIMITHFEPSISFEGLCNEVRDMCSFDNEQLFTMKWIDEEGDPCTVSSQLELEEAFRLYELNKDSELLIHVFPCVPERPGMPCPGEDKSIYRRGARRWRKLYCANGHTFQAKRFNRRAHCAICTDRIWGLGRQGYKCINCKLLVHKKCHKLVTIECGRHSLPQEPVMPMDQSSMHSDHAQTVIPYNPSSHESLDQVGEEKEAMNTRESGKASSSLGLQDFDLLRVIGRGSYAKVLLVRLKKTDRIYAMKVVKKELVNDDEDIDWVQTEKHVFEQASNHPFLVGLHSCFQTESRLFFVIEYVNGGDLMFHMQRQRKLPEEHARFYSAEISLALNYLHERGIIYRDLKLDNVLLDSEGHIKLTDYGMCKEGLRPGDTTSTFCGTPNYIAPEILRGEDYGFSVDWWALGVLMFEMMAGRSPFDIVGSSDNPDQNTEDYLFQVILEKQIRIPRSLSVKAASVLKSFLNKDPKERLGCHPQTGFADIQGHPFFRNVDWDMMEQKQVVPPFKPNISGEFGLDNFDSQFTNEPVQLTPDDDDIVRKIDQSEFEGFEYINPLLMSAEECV

[17] = molecular target: Serine/threonine-protein kinase 25 (Homo sapiens) (UniProt O00506); test: Inhibition of human YSK1 at 500 nM by HotSpot assay relative to control
Chain of Serine/threonine-protein kinase 25 (Homo sapiens) (O00506 whole entry, looked up): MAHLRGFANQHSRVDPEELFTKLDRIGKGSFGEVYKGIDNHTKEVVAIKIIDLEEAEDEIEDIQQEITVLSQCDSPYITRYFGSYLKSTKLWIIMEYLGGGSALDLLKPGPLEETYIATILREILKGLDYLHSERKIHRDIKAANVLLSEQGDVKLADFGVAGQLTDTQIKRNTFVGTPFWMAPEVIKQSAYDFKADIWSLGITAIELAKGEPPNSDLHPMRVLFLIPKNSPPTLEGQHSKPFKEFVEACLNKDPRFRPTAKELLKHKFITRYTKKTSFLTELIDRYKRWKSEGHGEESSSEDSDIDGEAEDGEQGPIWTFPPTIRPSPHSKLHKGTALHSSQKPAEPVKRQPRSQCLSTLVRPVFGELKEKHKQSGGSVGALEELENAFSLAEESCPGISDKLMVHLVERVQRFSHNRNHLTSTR

[18] = molecular target: Wee1-like protein kinase (Homo sapiens) (UniProt P30291); test: Inhibition of human WEE1 at 500 nM by HotSpot assay relative to control
[19] = molecular target: Mitogen-activated protein kinase kinase kinase 20 (Homo sapiens) (UniProt Q9NYL2); test: Inhibition of human MLTK at 500 nM by HotSpot assay relative to control
[20] = Inhibition of mono-phosphorylated human Insulin receptor (978 to 1283 residues) C981S mutant kinase domain expressed in baculovirus infected Sf9 cells incubated for 1 hr by [gamma-33P]ATP assay

| Compound | inhibition [1] | inhibition [2] | inhibition [3] | inhibition [4] | inhibition [5] | inhibition [6] | inhibition [7] | inhibition [8] | inhibition [9] | inhibition [10] | inhibition [11] | inhibition [12] | inhibition [13] | inhibition [14] | inhibition [15] | inhibition [16] | inhibition [17] | inhibition [18] | inhibition [19] | inhibition [20] |
| --- | --- | --- | --- | --- | --- | --- | --- | --- | --- | --- | --- | --- | --- | --- | --- | --- | --- | --- | --- | --- |
| Oc1n[nH]c2nnc(-c3c(-c4ccccc4)nn4ccccc34)cc12 | 0.36% | 0.26% | -4.88% | 1.86% | 6.97% | 2.49% | -3.2% | 0.44% | 5% | 0.95% | -4.89% | 5.98% | 1.22% | -6.03% | 3.15% | 1.33% | 4.81% | 20.8% | -0.11% | Active |
| Nc1n[nH]c2nnc(-c3c(-c4ccccc4)nn4ccccc34)cc12 | 16.7% | 0.77% | 1.48% | 2.97% | 6.59% | -1.46% | 0.84% | 10.1% | 3.19% | 38% | -1.88% | -3.19% | 1.66% | 1.7% | 4.72% | 1.7% | 15.8% | 7.57% | -1.29% | Active |
